# Experimental data published in ChEMBL document CHEMBL1146636, “Synthesis and in vitro activity of novel isoxazolyl tetrahydropyridinyl oxazolidinone antibacterial agents” (2003).
# Assays:
# Type in all cases: functional
# Enterococcus faecalis [1] = test: In vitro antibacterial activity against Enterococcus faecalis EFS008 (E.f.2)
# Enterococcus faecium [2] = test: In vitro antibacterial activity against vancomycin-resistant Enterococcus faecium 2164 (VRE.3)
# [3] = system: Staphylococcus epidermidis; test: In vitro antibacterial activity against Staphylococcus epidermidisMR 887E (S. e. MR)
# Staphylococcus aureus [4] = test: In vitro antibacterial activity against Staphylococcus aureus 77 (S.a.2)
# [5] = system: Staphylococcus epidermidis; test: In vitro antibacterial activity against Staphylococcus epidermidis Q004 (S.e.1)
# Enterococcus faecium [6] = test: In vitro antibacterial activity against vancomycin-resistant Enterococcus faecium 2006 (VRE.2)
# Staphylococcus aureus [7] = test: In vitro antibacterial activity against methicillin-resistant Staphylococcus aureus 241 (MRSA)
# Enterococcus faecium [8] = test: In vitro antibacterial activity against vancomycin-resistant Enterococcus faecium (VRE.1)
# Staphylococcus aureus [9] = test: In vitro antibacterial activity against Staphylococcus aureus 29213A (S.a.3)
# Staphylococcus aureus [10] = test: In vitro antibacterial activity against Staphylococcus aureus 6538p (S.a.1)
# Enterococcus faecalis [11] = test: In vitro antibacterial activity against Enterococcus faecalis 29212A (E.f.1)
Compound,MIC (Enterococcus faecalis [1]) [µg/mL],MIC (Enterococcus faecium [2]) [µg/mL],MIC [3] [µg/mL],MIC (Staphylococcus aureus [4]) [µg/mL],MIC [5] [µg/mL],MIC (Enterococcus faecium [6]) [µg/mL],MIC (Staphylococcus aureus [7]) [µg/mL],MIC (Enterococcus faecium [8]) [µg/mL],MIC (Staphylococcus aureus [9]) [µg/mL],MIC (Staphylococcus aureus [10]) [µg/mL],MIC (Enterococcus faecalis [11]) [µg/mL]
CC(=O)NC[C@H]1CN(c2ccc(N3CC=C(c4oncc4C(=O)N(C)C)CC3)c(F)c2)C(=O)O1,8,8,8,8,2,8,8,8,4,4,8
CC(=O)NC[C@H]1CN(c2ccc(N3CC=C(c4oncc4C(N)=O)CC3)c(F)c2)C(=O)O1,1,1,1,0.5,0.5,1,0.5,1,0.5,0.5,1
CC(=O)NC[C@H]1CN(c2ccc(N3CC=C(c4oncc4C(F)(F)F)CC3)c(F)c2)C(=O)O1,> 64,> 64,> 64,> 64,> 64,> 64,–,> 64,> 64,> 64,> 64
CCOC(=O)c1cnoc1C1=CCN(c2ccc(N3C[C@H](CNC(C)=O)OC3=O)cc2F)CC1,8,8,16,4,4,8,4,16,4,8,16
CC(=O)NC[C@H]1CN(c2ccc(N3CC=C(c4oncc4C#N)CC3)c(F)c2)C(=O)O1,4,4,4,1,1,4,2,4,4,2,4
CC(=O)NC[C@H]1CN(c2ccc(N3CC=C(c4oncc4Cl)CC3)c(F)c2)C(=O)O1,64,32,16,8,8,32,4,32,32,8,64
CC(=O)NC[C@H]1CN(c2ccc(N3CC=C(c4conc4C#N)CC3)c(F)c2)C(=O)O1,2,2,4,1,0.5,2,1,2,2,1,2
CC(=O)NC[C@H]1CN(c2ccc(N3CC=C(c4oncc4C)CC3)c(F)c2)C(=O)O1,4,2,2,1,1,2,2,2,4,2,4
CC(=O)NC[C@H]1CN(c2ccc(N3CCOCC3)c(F)c2)C(=O)O1 [LINEZOLID],–,2,1,0.5,0.5,2,0.5,2,–,0.5,–
CC(=O)NC[C@H]1CN(c2ccc(N3CC=C(c4conc4Cl)CC3)c(F)c2)C(=O)O1,8,8,8,2,2,8,2,8,8,2,8
CN[C@H](CC(C)C)C(=O)N[C@H]1C(=O)N[C@@H](CC(N)=O)C(=O)N[C@H]2C(=O)N[C@H]3C(=O)N[C@H](C(=O)N[C@H](C(=O)O)c4cc(O)cc(O)c4-c4cc3ccc4O)[C@H](O)c3ccc(c(Cl)c3)Oc3cc2cc(c3O[C@@H]2O[C@H](CO)[C@@H](O)[C@H](O)[C@H]2O[C@H]2C[C@](C)(N)[C@H](O)[C@H](C)O2)Oc2ccc(cc2Cl)[C@H]1O [VANCOMYCIN],–,> 64,–,–,–,> 64,–,64,–,–,–
